According to PubChem BioAssay AID1963437 (Molecular Pharmacology Branch, DTP, NCI, 2024):
pIC50: −log10 of the molar value.

System: OVCAR-8 complex spheroid, growth inhibition
Test: Anticancer human tumor OVCAR-8 cell line growth inhibition [Asc];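 also: spheroids exposed to agents for 7 days before readout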;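 as to viability, T/C: percent viability relative to DMSO vehicle wells taken as 100%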
Conditions: for pIC50: curve of first compound; for viability, T/C: stronger effect = lower value; active = viability on the fitted dose curve at most 10% of control; inactive = the rest
Summary of the method: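 Spheroid model: tumor line + HUVEC + hMSC. Single agents and combinations; top conc. at/near clinical Cmax (10 microM if undetermined), half-log dilutions. DMSO stocks at 800-fold test concentration.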

[1] = second compound 0.00949 µM, first compound 0.0316 µM
[2] = second compound 0.00949 µM, first compound 0.1 µM
[3] = second compound 0.00949 µM, first compound 0.316 µM
[4] = second compound 0.00949 µM, first compound 1 µM
[5] = second compound 0.00949 µM, first compound 3.16 µM
[6] = second compound 0.00949 µM, first compound 10 µM
[7] = second compound 0.03 µM, first compound 0.0316 µM
[8] = second compound 0.03 µM, first compound 0.1 µM
[9] = second compound 0.03 µM, first compound 0.316 µM
[10] = second compound 0.03 µM, first compound 1 µM
[11] = second compound 0.03 µM, first compound 3.16 µM
[12] = second compound 0.03 µM, first compound 10 µM
[13] = second compound 0.0949 µM, first compound 0.0316 µM
[14] = second compound 0.0949 µM, first compound 0.1 µM
[15] = second compound 0.0949 µM, first compound 0.316 µM
[16] = second compound 0.0949 µM, first compound 1 µM
[17] = second compound 0.0949 µM, first compound 3.16 µM
[18] = second compound 0.0949 µM, first compound 10 µM
[19] = second compound 0.3 µM, first compound 0.0316 µM
[20] = second compound 0.3 µM, first compound 0.1 µM
[21] = second compound 0.3 µM, first compound 0.316 µM
[22] = second compound 0.3 µM, first compound 1 µM
[23] = second compound 0.3 µM, first compound 3.16 µM
[24] = second compound 0.3 µM, first compound 10 µM
[25] = second compound 0.949 µM, first compound 0.0316 µM
[26] = second compound 0.949 µM, first compound 0.1 µM
[27] = second compound 0.949 µM, first compound 0.316 µM
[28] = second compound 0.949 µM, first compound 1 µM
[29] = second compound 0.949 µM, first compound 3.16 µM
[30] = second compound 0.949 µM, first compound 10 µM
[31] = second compound 3 µM, first compound 0.0316 µM
[32] = second compound 3 µM, first compound 0.1 µM
[33] = second compound 3 µM, first compound 0.316 µM
[34] = second compound 3 µM, first compound 1 µM
[35] = second compound 3 µM, first compound 3.16 µM
[36] = second compound 3 µM, first compound 10 µM

C#Cc1c(F)ccc2cc(O)cc(-c3ncc4c(N5CC6CCC(C5)N6)nc(OCC56CCCN5CC(F)C6)nc4c3F)c12 (stereo not drawn) + CCN1C(C(=O)NC23CCC(C(=O)O)(CC2)CC3)C(c2cccc(Cl)c2F)C2(C(=O)Nc3cc(Cl)ccc32)C12CCCCC2
< 5.00: pIC50 (second compound 0.00949 µM) | pIC50 (second compound 0.03 µM) | pIC50 (second compound 0.0949 µM) | pIC50 (second compound 0.3 µM) | pIC50 (second compound 0.949 µM) | pIC50 (second compound 3 µM)
inactive: viability, T/C [1] 91.7% | viability, T/C [2] 86.9% | viability, T/C [3] 93.3% | viability, T/C [4] 95.2% | viability, T/C [5] 95.5% | viability, T/C [6] 89.3% | viability, T/C [7] 114% | viability, T/C [8] 96.3% | viability, T/C [9] 85.1% | viability, T/C [10] 97.3% | viability, T/C [11] 90.1% | viability, T/C [12] 91.5% | viability, T/C [13] 93.2% | viability, T/C [14] 82.2% | viability, T/C [15] 94.4% | viability, T/C [16] 84% | viability, T/C [17] 101% | viability, T/C [18] 101% | viability, T/C [19] 79.5% | viability, T/C [20] 86.8% | viability, T/C [21] 84.2% | viability, T/C [22] 91.7% | viability, T/C [23] 96.5% | viability, T/C [24] 98.2% | viability, T/C [25] 93.5% | viability, T/C [26] 107% | viability, T/C [27] 90.8% | viability, T/C [28] 92.3% | viability, T/C [29] 103% | viability, T/C [30] 107% | viability, T/C [31] 108% | viability, T/C [32] 93% | viability, T/C [33] 105% | viability, T/C [34] 115% | viability, T/C [35] 110% | viability, T/C [36] 112%

C=C(F)C(=O)N1CCN(c2nc(OCC3CCCN3C)nc3c2CCN(c2cccc4cccc(Cl)c24)C3)CC1CC#N (stereo not drawn) + CCN1C(C(=O)NC23CCC(C(=O)O)(CC2)CC3)C(c2cccc(Cl)c2F)C2(C(=O)Nc3cc(Cl)ccc32)C12CCCCC2
active: viability, T/C [6] 1.01% | viability, T/C [12] 0.56% | viability, T/C [18] 0.29% | viability, T/C [24] 0.7% | viability, T/C [30] 1.05% | viability, T/C [36] 0.52%
5.58: pIC50 (second compound 0.3 µM)
5.60: pIC50 (second compound 0.03 µM) | pIC50 (second compound 0.949 µM)
inactive: viability, T/C [1] 115% | viability, T/C [2] 86.5% | viability, T/C [3] 103% | viability, T/C [4] 119% | viability, T/C [5] 38% | viability, T/C [7] 96.6% | viability, T/C [8] 90.2% | viability, T/C [9] 92.3% | viability, T/C [10] 107% | viability, T/C [11] 38% | viability, T/C [13] 93.1% | viability, T/C [14] 98.6% | viability, T/C [15] 93.9% | viability, T/C [16] 116% | viability, T/C [17] 42.3% | viability, T/C [19] 83.8% | viability, T/C [20] 103% | viability, T/C [21] 105% | viability, T/C [22] 121% | viability, T/C [23] 40.6% | viability, T/C [25] 90.3% | viability, T/C [26] 96.8% | viability, T/C [27] 102% | viability, T/C [28] 126% | viability, T/C [29] 35.9% | viability, T/C [31] 111% | viability, T/C [32] 97.3% | viability, T/C [33] 140% | viability, T/C [34] 128% | viability, T/C [35] 40.3%
5.59: pIC50 (second compound 0.00949 µM)
5.56: pIC50 (second compound 3 µM)
5.57: pIC50 (second compound 0.0949 µM)

C=CC(=O)N1CCN(c2nc(=O)n(-c3c(C)ccnc3C(C)C)c3nc(-c4c(O)cccc4F)c(F)cc23)C(C)C1 (stereo not drawn) + CCN1C(C(=O)NC23CCC(C(=O)O)(CC2)CC3)C(c2cccc(Cl)c2F)C2(C(=O)Nc3cc(Cl)ccc32)C12CCCCC2
inactive: viability, T/C [1] 94.2% | viability, T/C [2] 89.9% | viability, T/C [3] 94.7% | viability, T/C [4] 81.7% | viability, T/C [5] 89.3% | viability, T/C [6] 100% | viability, T/C [7] 101% | viability, T/C [8] 90.6% | viability, T/C [9] 85.3% | viability, T/C [10] 76.8% | viability, T/C [11] 102% | viability, T/C [12] 102% | viability, T/C [13] 101% | viability, T/C [14] 78.6% | viability, T/C [15] 88% | viability, T/C [16] 74.2% | viability, T/C [17] 86.1% | viability, T/C [18] 116% | viability, T/C [19] 88% | viability, T/C [20] 96.7% | viability, T/C [21] 86.3% | viability, T/C [22] 93.7% | viability, T/C [23] 88.2% | viability, T/C [24] 106% | viability, T/C [25] 87.3% | viability, T/C [26] 103% | viability, T/C [27] 102% | viability, T/C [28] 90.8% | viability, T/C [29] 104% | viability, T/C [30] 115% | viability, T/C [31] 124% | viability, T/C [32] 103% | viability, T/C [33] 101% | viability, T/C [34] 106% | viability, T/C [35] 120% | viability, T/C [36] 137%
< 5.00: pIC50 (second compound 0.00949 µM) | pIC50 (second compound 0.03 µM) | pIC50 (second compound 0.0949 µM) | pIC50 (second compound 0.3 µM) | pIC50 (second compound 0.949 µM) | pIC50 (second compound 3 µM)

CNC(C)C(=O)NC1CN(S(=O)(=O)c2cccc(S(=O)(=O)N3CCC4CCC(C(=O)NC(c5ccccc5)c5ccccc5)N4C(=O)C(NC(=O)C(C)NC)C3)c2)CCC2CCC(C(=O)NC(c3ccccc3)c3ccccc3)N2C1=O (stereo not drawn) + CCN1C(C(=O)NC23CCC(C(=O)O)(CC2)CC3)C(c2cccc(Cl)c2F)C2(C(=O)Nc3cc(Cl)ccc32)C12CCCCC2
inactive: viability, T/C (second compound 0.00949 µM, first compound 0.00316 µM) 100% | viability, T/C (second compound 0.00949 µM, first compound 0.01 µM) 83.8% | viability, T/C [1] 91.8% | viability, T/C [2] 76.4% | viability, T/C [3] 75.4% | viability, T/C [4] 71.3% | viability, T/C (second compound 0.03 µM, first compound 0.00316 µM) 107% | viability, T/C (second compound 0.03 µM, first compound 0.01 µM) 99.3% | viability, T/C [7] 94% | viability, T/C [8] 88.8% | viability, T/C [9] 75% | viability, T/C [10] 83.3% | viability, T/C (second compound 0.0949 µM, first compound 0.00316 µM) 94.7% | viability, T/C (second compound 0.0949 µM, first compound 0.01 µM) 98.1% | viability, T/C [13] 90.9% | viability, T/C [14] 79% | viability, T/C [15] 74.4% | viability, T/C [16] 63.6% | viability, T/C (second compound 0.3 µM, first compound 0.00316 µM) 112% | viability, T/C (second compound 0.3 µM, first compound 0.01 µM) 101% | viability, T/C [19] 86.7% | viability, T/C [20] 65.9% | viability, T/C [21] 68.6% | viability, T/C [22] 70.1% | viability, T/C (second compound 0.949 µM, first compound 0.00316 µM) 91.7% | viability, T/C (second compound 0.949 µM, first compound 0.01 µM) 89.1% | viability, T/C [25] 99% | viability, T/C [26] 76.7% | viability, T/C [27] 64.3% | viability, T/C [28] 66.8% | viability, T/C (second compound 3 µM, first compound 0.00316 µM) 118% | viability, T/C (second compound 3 µM, first compound 0.01 µM) 102% | viability, T/C [31] 115% | viability, T/C [32] 88% | viability, T/C [33] 84.5% | viability, T/C [34] 88%
< 6.00: pIC50 (second compound 0.00949 µM) | pIC50 (second compound 0.03 µM) | pIC50 (second compound 0.0949 µM) | pIC50 (second compound 0.3 µM) | pIC50 (second compound 0.949 µM) | pIC50 (second compound 3 µM)
